Test results taken from ChEMBL document CHEMBL1201862, “PubChem BioAssay data set” (2004).
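Protocol summary: plate cells (96-well), add compound at 5 concentrations, incubate 48 h, interpolate endpoints linearly. Abbreviation: GI50, concentration required for 50% inhibition of growth.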 Calls of active or inactive are those of the source. Rule as the data show it: active = GI50 up to about 1.1 µM and inactive = higher.

Legend:
Experiment in all cases: NCI tumour cell line growth inhibition, 48 h
[1] = test system: 786-0
[2] = test system: A549
[3] = test system: ACHN
[4] = test system: CAKI-1
[5] = test system: CCRF-CEM
[6] = test system: COLO 205
[7] = test system: DLD-1
[8] = test system: DMS-114
[9] = test system: EKVX
[10] = test system: HCT-116
[11] = test system: HCT-15
[12] = test system: HL-60
[13] = test system: HOP-18
[14] = test system: HOP-62
[15] = test system: HOP-92
[16] = test system: HT-29
[17] = test system: IGROV-1
[18] = test system: K562
[19] = test system: KM-20L2
[20] = test system: KM12
[21] = test system: LXFL 529
[22] = test system: M14
[23] = test system: M19-MEL
[24] = test system: MOLT-4
[25] = test system: Malme-3M
[26] = test system: NCI-H226
[27] = test system: NCI-H23
[28] = test system: NCI-H460
[29] = test system: NCI-H522
[30] = test system: OVCAR-3
[31] = test system: OVCAR-4
[32] = test system: OVCAR-8
[33] = test system: RPMI-8226
[34] = test system: RXF 393
[35] = test system: RXF 631
[36] = test system: SF-268
[37] = test system: SF-295
[38] = test system: SF-539
[39] = test system: SK-MEL-28
[40] = test system: SK-MEL-2
[41] = test system: SK-MEL-5
[42] = test system: SK-OV-3
[43] = test system: SN12C
[44] = test system: SNB-19
[45] = test system: SNB-75
[46] = test system: SR
[47] = test system: SW-620
[48] = test system: TK-10
[49] = test system: U-251
[50] = test system: UACC-257
[51] = test system: UACC-62
[52] = test system: UO-31
[53] = test system: XF498
[54] = test system: A498
[55] = test system: DMS-273
[56] = test system: HCC 2998
[57] = test system: LOX IMVI
[58] = test system: OVCAR-5

With `COC(=O)C1=CNC(C(=O)OC)=NN1` the GI50 [1] was > 100 µM (inactive), the GI50 [2] was > 100 µM (inactive) and the GI50 [3] was > 100 µM (inactive). The GI50 [4] was > 100 µM (inactive), the GI50 [5] was > 100 µM (inactive) and the GI50 [6] was > 100 µM (inactive). For the same molecule, the GI50 [7] was > 100 µM (inactive), the GI50 [8] was > 100 µM (inactive) and the GI50 [9] was > 10 µM (inactive). For the same molecule, the GI50 [10] was > 100 µM (inactive), the GI50 [11] was greater than 100 µM and the GI50 [12] was > 100 µM (inactive). The GI50 [13] was > 100 µM (inactive), the GI50 [14] was > 100 µM (inactive) and the GI50 [15] was > 100 µM (inactive). For the same molecule, the GI50 [16] was > 100 µM (inactive), the GI50 [17] was > 100 µM (inactive) and the GI50 [18] was > 100 µM (inactive). The GI50 [19] was > 100 µM (inactive), the GI50 [20] was > 100 µM (inactive) and the GI50 [21] was > 100 µM (inactive). For the same molecule, the GI50 [22] was > 100 µM (inactive), the GI50 [23] was > 100 µM (inactive) and the GI50 [24] was > 100 µM (inactive). For the same molecule, the GI50 [25] was > 100 µM (inactive), the GI50 [26] was > 100 µM (inactive) and the GI50 [27] was > 100 µM (inactive). The GI50 [28] was > 100 µM (inactive), the GI50 [29] was > 100 µM (inactive) and the GI50 [30] was > 100 µM (inactive). The GI50 [31] was > 100 µM (inactive), the GI50 [32] was > 100 µM (inactive) and the GI50 [33] was > 100 µM (inactive). For the same molecule, the GI50 [34] was > 100 µM (inactive), the GI50 [35] was > 100 µM (inactive) and the GI50 [36] was > 100 µM (inactive). For the same molecule, the GI50 [37] was > 100 µM (inactive), the GI50 [38] was > 100 µM (inactive) and the GI50 [39] was > 100 µM (inactive). For the same molecule, the GI50 [40] was > 100 µM (inactive), the GI50 [41] was > 100 µM (inactive) and the GI50 [42] was > 100 µM (inactive). For the same molecule, the GI50 [43] was > 100 µM (inactive), the GI50 [44] was > 100 µM (inactive) and the GI50 [45] was > 100 µM (inactive). The GI50 [46] was > 100 µM (inactive), the GI50 [47] was > 100 µM (inactive) and the GI50 [48] was > 100 µM (inactive). For the same molecule, the GI50 [49] was > 100 µM (inactive), the GI50 [50] was > 100 µM (inactive) and the GI50 [51] was > 100 µM (inactive). The GI50 [52] was > 100 µM (inactive) and the GI50 [53] was > 100 µM (inactive).
In the case of `O=C(c1nc2ccc(Cl)cc2nc1O)C(O)c1ccc2c(c1)OCO2` (configuration not stated), the GI50 [1] is reported as > 100 µM (inactive), the GI50 [54] is reported as > 100 µM (inactive) and the GI50 [2] is reported as > 100 µM (inactive). For the same molecule, the GI50 [3] was 65.3 µM (inactive), the GI50 [5] was 4.17 µM (inactive) and the GI50 [6] was > 100 µM (inactive). The GI50 [7] was > 100 µM (inactive), the GI50 [8] was 8.43 µM (inactive) and the GI50 [55] was > 100 µM (inactive). The GI50 [9] was > 100 µM (inactive), the GI50 [56] was > 100 µM (inactive) and the GI50 [12] was 19.7 µM (inactive). For the same molecule, the GI50 [13] was 12.8 µM (inactive), the GI50 [14] was > 100 µM (inactive) and the GI50 [15] was > 100 µM (inactive). For the same molecule, the GI50 [16] was > 100 µM (inactive), the GI50 [17] was > 100 µM (inactive) and the GI50 [18] was 53.8 µM (inactive). The GI50 [19] was 74.5 µM (inactive), the GI50 [20] was 63.7 µM (inactive) and the GI50 [57] was 98.9 µM (inactive). For the same molecule, the GI50 [21] was 77.6 µM (inactive), the GI50 [22] was > 100 µM (inactive) and the GI50 [23] was > 100 µM (inactive). The GI50 [24] was 28.4 µM (inactive), the GI50 [25] was > 100 µM (inactive) and the GI50 [26] was > 100 µM (inactive). For the same molecule, the GI50 [27] was > 100 µM (inactive), the GI50 [28] was > 100 µM (inactive) and the GI50 [29] was 13.3 µM (inactive). For the same molecule, the GI50 [31] was 71.4 µM (inactive), the GI50 [58] was > 100 µM (inactive) and the GI50 [32] was > 100 µM (inactive). For the same molecule, the GI50 [33] was 7.4 µM (inactive), the GI50 [34] was > 100 µM (inactive) and the GI50 [35] was > 100 µM (inactive). The GI50 [36] was 91 µM (inactive), the GI50 [37] was > 100 µM (inactive) and the GI50 [39] was 78.5 µM (inactive). The GI50 [40] was > 100 µM (inactive), the GI50 [42] was > 100 µM (inactive) and the GI50 [45] was > 100 µM (inactive). The GI50 [47] was > 100 µM (inactive), the GI50 [48] was > 100 µM (inactive) and the GI50 [49] was > 100 µM (inactive). For the same molecule, the GI50 [50] was > 100 µM (inactive), the GI50 [51] was 84.5 µM (inactive) and the GI50 [52] was > 100 µM (inactive). The GI50 [53] was > 100 µM (inactive).
